What all share (type): in vivo
Test [1] concerns Pieris Brassicae. Description: Biological activity on Pieris brassicae larvae, sprayed cut cauliflower leaves. The source says:
Biological Activity on Pieris Brassicae (Lepidoptera)
Cut leaves of cauliflower were sprayed with an aqueous dispersion of compound according to this invention at a 0.1% concentration. After drying, they were infested with 5-day old larvae. The mortality percentage of the control, untreated leaves, was zero.
(§1) To show the variation in activity from one compound to another, depending on the species used, the activities of compounds according to this invention were investigated at different concentrations, expressed as percent of active principle, on various infesting species. The mortality percentage was computed in the same way as in the preceding examples.

Test [2] deals with Spodoptera Littoralis. Kind of test: Biological activity on Spodoptera littoralis larvae, sprayed cut tobacco leaves.
Text: Biological Activity on Spodoptera Littoralis (Lepidoptera)
Cut tobacco leaves were sprayed with a 0.1% aqueous dispersion of compounds according to the present invention, shown in Table 12. After drying, the leaves were infested with 5-day old lepidopter larvae. The mortality percentage of the control was zero.
as §1

The test system of test [3] is Tetranychus Urticae. Description: Biological activity on Tetranychus urticae eggs, bean leaf discs.
Text: Biological Activity on Tetranychus Urticae (Acari)
Small discs of bean leaves were infested with acarus eggs and successively treated by spraying with an aqueous dispersion of a compound of this invention and Aminocarb as a comparison, at concentrations of 0.1 and 0.01%. The mortality percentage of the control, untreated discs, was zero.
as §1

In test [4] the test system is Culex Pipiens. Kind of test: Biological activity on Culex pipiens (mosquito larvae in aqueous dispersion).
Text: Biological Activity on Culex Pipiens (Diptera)
Mosquito larvae of the third and fourth ages were introduced into glass pots containing an aqueous dispersion of the compounds shown at 2 ppm and 0.2 ppm.
as §1

In test [5] the test system is Leptinotarsa Decimlineata. Description: Biological activity on Leptinotarsa decemlineata larvae, sprayed potato seedlings.
Text: Biological Activity on Leptinotarsa Decimlineata Coleoptera
Potato seedlings cultivated in pots were infested with 4-day old larvae and sprayed with an aqueous dispersion of the compounds according to this invention and Aminocarb as a comparison at doses of […]; respectively. The mortality percentage of the control, untreated seedlings, was zero.
as §1

Test [6] concerns Leptinotarsa Decimlineata. Described as above. Conditions: read-out: Percent of Mortality.
For test [7], the system named is Macrosiphum Euphorbiae. Kind of test: Biological activity on Macrosiphum euphorbiae (aphides), potato seedlings sprayed with aqueous dispersion. As to the method: Biological Activity on Macrosiphum Euphorbiae (Aphides)
Potato seedlings, cultivated in pots, were infested with adult aphide females and, after a few hours, were sprayed with an aqueous dispersion of the compounds listed in Table 6. The mortality percentage was determined 24 hours after the treatment (on control non-treated seedlings, the mortality percentage was 0).
as §1

In test [8] the test system is Pieris Brassicae. Description: Persistence of insecticidal activity in the field, Pieris brassicae on cauliflower plants. The settings on record: 0.5 percent; for mortality at 0.5 %: read-out: Mortality Percent of Pieris Brassicae Larvae. The source says:
The persistence of insecticidal activity in the field using the insect Pieris brassicae was examined as follows:
Cauliflower plants grown under natural conditions in the field were sprinkled with an aqueous suspension of compounds according to this invention identified hereinabove as M 7361 and M 8157. For purposes of comparison, cauliflower plants were sprinkled with an aqueous suspension of a compound according to U.S. Pat. No. 3,819,678, identified hereinabove as M 7481.
After the respective time periods shown in Table 15, leaves of the sprinkled plants were picked and brought to the laboratory where they were infested with 10-day old larvae of Pieris brassicae and then kept under observation. The percent of mortality of the insects was determined 48 hours after infestation in all cases. The percent mortality of the control, unsprinkled cauliflower leaves, was zero.

In test [9] the test system is Spodoptera Littoralis. Kind of test: Persistence of insecticidal activity in the field, Spodoptera littoralis on Ricinus plants. The settings on record: one percent, read-out: Mortality Percent of Spodoptera Littoralis Larvae. From the text:
The persistence of insecticidal activity in the field using the insect Spodoptera littoralis was examined as follows:
Ricinus plants grown in the field under natural conditions were sprinkled with an aqueous suspension of the insecticidal compounds according to this invention designated hereinabove as M 7361 and M 8157. For purposes of comparison, an aqueous suspension of each of M 7481 and M 7488, according to U.S. Pat. No. 3,819,678 and identified above, was sprinkled on similarly grown Ricinus plants.
After the time periods shown in Table 16, leaves of the sprinkled plants were picked and brought to the laboratory where they were infested with 10-day old larvae of Spodoptera littoralis and then kept under observation. The mortality percent of the control unsprinkled leaves was zero.

The subject of test [10] is Leptinotarsa decemlineata. Kind of test: Persistence of insecticidal activity in the field, Leptinotarsa decemlineata on potato plants. The settings on record: 0.2 percent. The source says:
The persistence of insecticidal activity in the field using the insect Leptinotarsa decemlineata was examined as follows:
Potato plants grown in the field under natural conditions were sprinkled with an aqueous suspension of compound M 7361 which is according to this invention and identified hereinabove. For purposes of comparison, similarly grown potato plants were sprinkled with an aqueous suspension of the compounds M 7488 and M 7481, respectively, both according to U.S. Pat. No. 3,819,678 and identified above.
After the time periods shown in Table 17, leaves of the sprinkled plants were picked and brought to the laboratory where they were infested with 10 day-old larvae of Leptinotarsa decemlineata and then kept under observation. After 48 hours, the percent of mortality of the insects was determined. The mortality percent of the control unsprinkled leaves was zero.

Test [11] has as its system Musca Domestica. Description: Biological activity on Musca domestica, topical application to adults. Conditions: 24 h, read-out: Percent of Mortality. As to the method: Biological Activity on Musca Domestica (Diptera)
Four day old adults were treated by topical application through a microsyringe with 1 mm^3 of an acetonic solution of the compounds shown in such concentrations that they received doses of 5γ/insect; 2γ/insect; 0.5γ/insect of active principle. The mortality percentage 24 hours after the treatment is reported in Table 8 (mortality of insects treated with 1 mm^3 of acetone = 0).

Where [12] appears, read: 0.1 percent, larvae, read-out: Percent of Mortality.
The mark [13] stands for this setting: 0.1 percent, larvae, 48 hours, read-out: Percent of Mortality.
Where [14] appears, read: foliar, read-out: Percent of Mortality.
Where [15] appears, read: read-out: % mort. Macrosiphum Euphorbiae.
Setting [16] is: read-out: % mort. Leptinot. Decemlin.
Where [17] appears, read: 120 h, 5 days after field treatment.
The mark [18] stands for this setting: 216 h, 9 days after field treatment.
Setting [19] is: 336 h, 14 days after field treatment.
[20] abbreviates: 408 h, 17 days after field treatment.
Where [21] appears, read: 528 h, 22 days after field treatment.
The mark [22] stands for this setting: 264 h, 11 days after field treatment.
[23] abbreviates: 432 h, 18 days after field treatment.
The mark [24] stands for this setting: 600 h, 25 days after field treatment.
The mark [25] stands for this setting: 96 h, 4 days after field treatment.
[26] abbreviates: 168 h, 7 days after field treatment.

Read-outs that look alike come from different tables or passages of the source.

For `CNC(=O)Oc1ccc(NCC=C(Cl)Cl)c(C)c1` [M 6432], the mortality at 0.1 % in test [1] (setting [12]) and in test [2] (setting [13]) was 100% each time.
Take `CNC(=O)Oc1ccc(NCC(Cl)=C(Cl)Cl)c(C)c1` [M 6737]: the mortality at 0.1 % in [1] (setting [12]), in [3] (setting [14]) and in test [2] (setting [13]) was 100% each time. The mortality at 0.01 % in [3] (setting [14]) is 80%.
As to `CNC(=O)Oc1cccc(NCC(Cl)=C(Cl)Cl)c1` [M 6740], the mortality at 2 ppm in test [4] (24 h, read-out: Percent of Mortality) is 100%. In test [5] (read-out: Percent of Mortality), the mortality at 0.1 % was found to be 100%. Besides, in test [6], the mortality at 0.01 % was 100%.
For `CNC(=O)Oc1cc(C)ccc1NCC(Cl)=C(Cl)Cl` [M 6773, N-methylcarbamate of 3-methyl-6-(2,3,3-trichloroallylamino)-phenol], the mortality at 0.01 % in test [7] (24 h, read-out: Mortality Percent) stood at 75%.
In the case of `CNC(=O)Oc1cc(C)c(NCC=C(Cl)Cl)c(C)c1` [M 7361], the mortality at 0.01 % in [7] (setting [15]) amounted to 17%; in test [5] (setting [16]), 52%; in test [1] (Table 14, 0.01% a.p., read-out: % mort. Pieris Brassicae), 15%; in test [2] (48 h, Table 14, 0.01% a.p., read-out: % mort. Spodopt. Littoralis) it was 7%. For the same compound, the mortality at 0.1 % amounted to 81% in [7] (setting [15]); 97% in test [5] (setting [16]); 97% in test [1] (Table 14, 0.1% a.p., read-out: % mort. Pieris Brassicae); 72% in test [2] (48 h, Table 14, 0.1% a.p., read-out: % mort. Spodopt. Littoralis). The mortality at 1 % in test [7] (setting [15]) is 100%; in test [5] (setting [16]), 100%; in [1] (Table 14, 1% a.p., read-out: % mort. Pieris Brassicae) it was 100%; in test [3] (topical, read-out: % mort. Tetran. Urt. eggs), 13%; in test [2] (48 h, Table 14, 1% a.p., read-out: % mort. Spodopt. Littoralis), 100%; in [9] (setting [17]), 100%. For the same compound, the mortality at 1 % in [9] (setting [22]), in test [9] (setting [19]), in test [9] (setting [23]), in test [9] (setting [24]) and in test [9] (2 hours after field treatment) was 100% in each case. Besides, the mortality at 2 ppm in test [4] (read-out: % mort. Culex Pipiens) was determined as 40%. Moreover, the “period for which insecticidal activity is fully retained in the field” value in test [8] is listed as “at least 22 days”. Besides, the mortality at 0.5 % in test [8] (2 hours after field treatment), in test [8] (setting [17]), in [8] (setting [18]), in test [8] (setting [19]), in test [8] (setting [20]) and in test [8] (setting [21]) was 100% throughout. Moreover, the mortality at 0.2 % in [10] (2 hours after field treatment) was 100%; in test [10] (setting [25]), 100%; in test [10] (setting [26]) it was 100%; in [10] (setting [22]) it was 100%; in test [10] (setting [23]) it was 100%; in test [10] (setting [24]), 73%.
For `CNC(=O)Oc1cc(C)c(N(C)CC=C(Cl)Cl)c(C)c1` [M 7481, reference compound], the “time after which totally ineffective in the field” value in [8] came out at 14 days. The “time at which activity begins to be lost in the field” value in test [8] is 2 to 5 days. Further, the mortality at 0.5 % in test [8] (2 hours after field treatment) worked out at 100%; in test [8] (setting [17]), 55%; in test [8] (setting [18]), 30%; in test [8] (setting [19]) it was 0%; in test [8] (setting [20]), 0%; in test [8] (setting [21]), 0%. Also, the mortality at 1 % was found to be 100% in test [9] (setting [17]); 77% in test [9] (setting [22]); 60% in [9] (setting [19]); 47% in test [9] (setting [23]); 40% in test [9] (setting [24]); 100% in [9] (2 hours after field treatment). The mortality at 0.2 % in [10] (2 hours after field treatment) was 100%; in test [10] (setting [25]) it was 60%; in [10] (setting [26]), 20%; in [10] (setting [22]), 0%; in [10] (setting [23]), 0%; in test [10] (setting [24]), 0%.
As for `CNC(=O)Oc1cc(C)c(N(CC=C(Cl)Cl)CC=C(Cl)Cl)c(C)c1` [M 7488, reference compound], the mortality at 1 % came out at 92% in test [9] (setting [17]); 47% in [9] (setting [22]); 38% in test [9] (setting [19]); 22% in [9] (setting [23]); 0% in [9] (setting [24]); 100% in test [9] (2 hours after field treatment). Moreover, the mortality at 0.2 % in test [10] (2 hours after field treatment) amounted to 100%; in test [10] (setting [25]), 70%; in test [10] (setting [26]), 20%; in test [10] (setting [22]) it was 10%; in [10] (setting [23]), 0%; in test [10] (setting [24]) it was 0%.
As to `CNC(=O)Oc1cc(C)c(NCC(Cl)=C(Cl)Cl)c(C)c1` [M 8157], in test [8], the “period for which insecticidal activity is fully retained in the field” value is on record as “at least 22 days”. In addition, the mortality at 0.5 % in test [8] (2 hours after field treatment), in [8] (setting [17]), in test [8] (setting [18]), in test [8] (setting [19]), in [8] (setting [20]) and in [8] (setting [21]) was 100% throughout. In addition, the mortality at 1 % in test [9] (setting [17]), in test [9] (setting [22]), in test [9] (setting [19]), in [9] (setting [23]), in test [9] (setting [24]) and in test [9] (2 hours after field treatment) was 100% each time.
As to `CNC(=O)Oc1cc(C)c(N(C)C)c(C)c1` [Zectran, reference compound], in test [11], the mortality at 0.5 µg/insect turned out to be 0% and the mortality at 2 µg/insect was determined as 60%.

The record behind these values is patent publication US4109011A, “Insecticide carbamates of N-(polychloroallyl)-amino-phenols” (priority 1975, dated 1978).
